Measured values reported in ChEMBL document CHEMBL4418493, “N-hydroxyformamide compounds and compositions comprising them for use as BMP1, TLL1 and/or TLL2 inhibitors” (2018).

Tests used:
[1] = Drug metabolism in heparinized pooled human plasma at pH 7.5 assessed as formation of (S)-2-(2-(carboxymethoxy)-4-(5-((((R)-2-((R)-1-(N-hydroxyformamido)propyl)heptanamido)methyl)carbamoyl)furan-2-yl)benzamido)succinic acid at 100 to 2000 ng/ml incubated up to 4 or 24 hrs by LC-MS/MS analysis; format: ADME, cell-free; conditions: pH 7.5, 24 h
[2] = Reduction in PICP levels in human cardiac fibroblasts incubated for 24 to 48 hrs by ELISA; format: functional
[3] = Drug metabolism in heparinized pooled human plasma at pH 7.5 assessed as formation of (S)-2-(2-ethoxy-4-(5-((((R)-2-((R)-1-(N-hydroxyformamido)propyl)heptanamido)methyl) carbamoyl)furan-2-yl)benzamido)succinic acid at 100 to 2000 ng/ml incubated up to 4 or 24 hrs by LC-MS/MS analysis; format: ADME, cell-free; conditions: pH 7.5, 24 h

Compound	Drug metabolism [1]	IC50 [2] [µM]	Drug metabolism [3]
CCCCC[C@@H](C(=O)NCNC(=O)c1ccc(-c2ccc(C(=O)N[C@@H](CC(=O)O)C(=O)O)c(OCC(=O)O)c2)o1)[C@@H](CC)N(C=O)OC(=O)Nc1ccccc1	Metabolite_Detected	–	–
CCCCC[C@@H](C(=O)NCNC(=O)c1ccc(-c2ccc(C(=O)N[C@@H](CC(=O)O)C(=O)O)c(OCC(=O)O)c2)o1)[C@@H](CC)N(C=O)OC(=O)c1ccccc1OC(=O)N(C)C	Metabolite_Detected	–	–
CCCCC[C@@H](C(=O)NCNC(=O)c1ccc(-c2ccc(C(=O)N[C@@H](CC(=O)O)C(=O)O)c(OCC)c2)o1)[C@@H](CC)N(C=O)OC(=O)NC(C)C	–	< 3.98	Metabolite_Detected
CCCCC[C@@H](C(=O)NCNC(=O)c1ccc(-c2ccc(C(=O)N[C@@H](CC(=O)O)C(=O)O)c(OCC(=O)O)c2)o1)[C@@H](CC)N(C=O)OC(=O)NC	Metabolite_Detected	–	–
CCCCC[C@@H](C(=O)NCNC(=O)c1ccc(-c2ccc(C(=O)N[C@@H](CC(=O)O)C(=O)OCc3oc(=O)oc3C)c(OCC)c2)o1)[C@@H](CC)N(O)C=O	–	–	Metabolite_Detected
CCCCC[C@@H](C(=O)NCNC(=O)c1ccc(-c2ccc(C(=O)N[C@@H](CC(=O)O)C(=O)O)c(OCC)c2)o1)[C@@H](CC)N(C=O)OC(=O)c1ccc2c(c1)N(C)CCO2.N.N	–	< 3.98	Metabolite_Detected
CCCCC[C@@H](C(=O)NCNC(=O)c1ccc(-c2ccc(C(=O)N[C@@H](CC(=O)O)C(=O)O)c(OCC)c2)o1)[C@@H](CC)N(C=O)OC(=O)c1ccc(NC)cc1	–	–	Metabolite_Detected
CCCCC[C@@H](C(=O)NCNC(=O)c1ccc(-c2ccc(C(=O)N[C@@H](CC(=O)O)C(=O)O)c(OCC)c2)o1)[C@@H](CC)N(C=O)OC(=O)c1ccc(OC)cc1Br	–	–	Metabolite_Detected
CCCCC[C@@H](C(=O)NCNC(=O)c1ccc(-c2ccc(C(=O)N[C@@H](CC(=O)O)C(=O)O)c(OCC)c2)o1)[C@@H](CC)N(C=O)OC(=O)c1ccc(N)cc1	–	–	Metabolite_Detected
CCCCC[C@@H](C(=O)NCNC(=O)c1ccc(-c2ccc(C(=O)N[C@@H](CC(=O)O)C(=O)O)c(OCC(=O)O)c2)o1)[C@@H](CC)N(C=O)OC(=O)c1cccc(C(=O)O)c1	Metabolite_Detected	–	–
CCCCC[C@@H](C(=O)NCNC(=O)c1ccc(-c2ccc(C(=O)N[C@@H](CC(=O)O)C(=O)O)c(OCC)c2)o1)[C@@H](CC)N(C=O)OC(=O)c1ccc(N(C)S(C)(=O)=O)cc1	–	< 3.98	Metabolite_Detected
CCCCC[C@@H](C(=O)NCNC(=O)c1ccc(-c2ccc(C(=O)N[C@@H](CC(=O)O)C(=O)O)c(OCC)c2)o1)[C@@H](CC)N(C=O)OC(=O)c1ccc(OC)c(OC)c1	–	< 3.98	Metabolite_Detected
CCCCC[C@@H](C(=O)NCNC(=O)c1ccc(-c2ccc(C(=O)N[C@@H](CC(=O)O)C(=O)O)c(OCC)c2)o1)[C@@H](CC)N(C=O)OC(=O)c1ccc(OCCOCCO)cc1	–	< 3.98	Metabolite_Detected
CCCCC[C@@H](C(=O)NCNC(=O)c1ccc(-c2ccc(C(=O)N[C@@H](CC(=O)O)C(=O)O)c(OCC)c2)o1)[C@@H](CC)N(C=O)OC(=O)c1ccc(OC)cc1C.N.N	–	–	Metabolite_Detected
CCCCC[C@@H](C(=O)NCNC(=O)c1ccc(-c2ccc(C(=O)N[C@@H](CC(=O)O)C(=O)O)c(OCC)c2)o1)[C@@H](CC)N(C=O)OC(=O)c1ccc(C(F)(F)F)cc1	–	< 3.98	Metabolite_Detected
CCCCC[C@@H](C(=O)NCNC(=O)c1ccc(-c2ccc(C(=O)N[C@@H](CC(=O)O)C(=O)OCOC(=O)C(C)C)c(OCC)c2)o1)[C@@H](CC)N(O)C=O	–	< 3.98	Metabolite_Detected
CCCCC[C@@H](C(=O)NCNC(=O)c1ccc(-c2ccc(C(=O)N[C@@H](CC(=O)O)C(=O)O)c(OCC)c2)o1)[C@@H](CC)N(C=O)OC(=O)c1ccc([N+](=O)[O-])cc1C	–	–	Metabolite_Detected
CCCCC[C@@H](C(=O)NCNC(=O)c1ccc(-c2ccc(C(=O)N[C@@H](CC(=O)O)C(=O)O)c(OCC)c2)o1)[C@@H](CC)N(C=O)OC(=O)Nc1ccccc1	–	–	Metabolite_Detected
CCCCC[C@@H](C(=O)NCNC(=O)c1ccc(-c2ccc(C(=O)N[C@@H](CC(=O)O)C(=O)O)c(OCC)c2)o1)[C@@H](CC)N(C=O)OC(=O)C1CCNCC1.O=C(O)C(F)(F)F	–	< 3.98	Metabolite_Detected
CCCCC[C@@H](C(=O)NCNC(=O)c1ccc(-c2ccc(C(=O)N[C@@H](CC(=O)O)C(=O)O)c(OCC)c2)o1)[C@@H](CC)N(C=O)OC(=O)c1ccc(OC)cc1C(C)C	–	–	Metabolite_Detected
CCCCC[C@@H](C(=O)NCNC(=O)c1ccc(-c2ccc(C(=O)N[C@@H](CC(=O)O)C(=O)O)c(OCC)c2)o1)[C@@H](CC)N(C=O)OC(=O)c1ccc(CN)cc1	–	–	Metabolite_Detected

Compound	Drug metabolism [1]	IC50 [2] [µM]	Drug metabolism [3]
CCCCC[C@@H](C(=O)NCNC(=O)c1ccc(-c2ccc(C(=O)N[C@@H](CC(=O)O)C(=O)O)c(OCC)c2)o1)[C@@H](CC)N(C=O)OC(=O)c1c(C)cccc1F	–	< 3.98	Metabolite_Detected
CCCCC[C@@H](C(=O)NCNC(=O)c1ccc(-c2ccc(C(=O)N[C@@H](CC(=O)O)C(=O)O)c(OCC)c2)o1)[C@@H](CC)N(C=O)OC(=O)c1ccc(OC)cc1	–	< 3.98	Metabolite_Detected
CCCCC[C@@H](C(=O)NCNC(=O)c1ccc(-c2ccc(C(=O)N[C@@H](CC(=O)O)C(=O)O)c(OCC)c2)o1)[C@@H](CC)N(C=O)OC(=O)c1ccc(CN2CCOCC2)cc1C	–	< 3.98	Metabolite_Detected
CCCCC[C@@H](C(=O)NCNC(=O)c1ccc(-c2ccc(C(=O)N[C@@H](CC(=O)O)C(=O)O)c(OCC)c2)o1)[C@@H](CC)N(C=O)OC(=O)c1ccc(-n2cccn2)cc1	–	< 3.98	Metabolite_Detected
CCCCC[C@@H](C(=O)NCNC(=O)c1ccc(-c2ccc(C(=O)N[C@@H](CC(=O)O)C(=O)O)c(OCC)c2)o1)[C@@H](CC)N(C=O)OC(=O)c1ccc(OC)cc1Cl	–	–	Metabolite_Detected
CCCCC[C@@H](C(=O)NCNC(=O)c1ccc(-c2ccc(C(=O)N[C@@H](CC(=O)O)C(=O)O)c(OCC)c2)o1)[C@@H](CC)N(C=O)OC(=O)c1cccc(N)c1	–	–	Metabolite_Detected
CCCCC[C@@H](C(=O)NCNC(=O)c1ccc(-c2ccc(C(=O)N[C@@H](CC(=O)O)C(=O)O)c(OCC)c2)o1)[C@@H](CC)N(C=O)OC(=O)c1ccc(CN2CCOCC2)cc1	–	< 3.98	Metabolite_Detected
CCCCC[C@@H](C(=O)NCNC(=O)c1ccc(-c2ccc(C(=O)N[C@@H](CC(=O)O)C(=O)O)c(OCC)c2)o1)[C@@H](CC)N(C=O)OC(=O)c1ccc(-n2cccc2)cc1.N.N	–	–	Metabolite_Detected
CCCCC[C@@H](C(=O)NCNC(=O)c1ccc(-c2ccc(C(=O)N[C@@H](CC(=O)O)C(=O)O)c(OCC)c2)o1)[C@@H](CC)N(C=O)OC(=O)c1ccc([N+](=O)[O-])cc1	–	< 3.98	Metabolite_Detected
CCCCC[C@@H](C(=O)NCNC(=O)c1ccc(-c2ccc(C(=O)N[C@@H](CC(=O)O)C(=O)O)c(OCC)c2)o1)[C@@H](CC)N(C=O)OC(=O)c1ccc2c(c1)OCCO2.N.N	–	< 3.98	Metabolite_Detected
CCCCC[C@@H](C(=O)NCNC(=O)c1ccc(-c2ccc(C(=O)N[C@@H](CC(=O)O)C(=O)O)c(OCC)c2)o1)[C@@H](CC)N(C=O)OC(=O)c1ccc(F)cc1C	–	< 3.98	Metabolite_Detected
CCCCC[C@@H](C(=O)NCNC(=O)c1ccc(-c2ccc(C(=O)N[C@@H](CC(=O)O)C(=O)O)c(OCC)c2)o1)[C@@H](CC)N(C=O)OC(=O)c1ccc(F)cc1C(C)C	–	< 3.98	Metabolite_Detected
CCCCC[C@@H](C(=O)NCNC(=O)c1ccc(-c2ccc(C(=O)N[C@@H](CC(=O)O)C(=O)O)c(OCC)c2)o1)[C@@H](CC)N(C=O)OC(=O)c1cccc(N(C)C)c1	–	–	Metabolite_Detected
CCCCC[C@@H](C(=O)NCNC(=O)c1ccc(-c2ccc(C(=O)N[C@@H](CC(=O)O)C(=O)O)c(OCC)c2)o1)[C@@H](CC)N(C=O)OCOC(=O)C(C)(C)C	–	< 3.98	Metabolite_Detected
CCCCC[C@@H](C(=O)NCNC(=O)c1ccc(-c2ccc(C(=O)N[C@@H](CC(=O)O)C(=O)O)c(OCC)c2)o1)[C@@H](CC)N(C=O)OC(=O)c1ccc(-n2ccnc2)cc1	–	< 3.98	Metabolite_Detected
CCCCC[C@@H](C(=O)NCNC(=O)c1ccc(-c2ccc(C(=O)N[C@@H](CC(=O)O)C(=O)O)c(OCC)c2)o1)[C@@H](CC)N(C=O)OC(=O)c1cccc(NC)c1	–	–	Metabolite_Detected
CCCCC[C@@H](C(=O)NCNC(=O)c1ccc(-c2ccc(C(=O)N[C@@H](CC(=O)O)C(=O)O)c(OCC)c2)o1)[C@@H](CC)N(C=O)OC(=O)c1ccc(N2CCCC2=O)cc1.N.N	–	< 3.98	Metabolite_Detected
CCCCC[C@@H](C(=O)NCNC(=O)c1ccc(-c2ccc(C(=O)N[C@@H](CC(=O)O)C(=O)O)c(OCC)c2)o1)[C@@H](CC)N(C=O)OC(=O)c1cccc(N2CCCC2)c1.N.N	–	< 3.98	Metabolite_Detected
CCCCC[C@@H](C(=O)NCNC(=O)c1ccc(-c2ccc(C(=O)N[C@@H](CC(=O)O)C(=O)O)c(OCC)c2)o1)[C@@H](CC)N(C=O)OC(=O)c1c(C)cccc1OP(=O)(O)O	–	–	Metabolite_Detected
CCCCC[C@@H](C(=O)NCNC(=O)c1ccc(-c2ccc(C(=O)N[C@@H](CC(=O)O)C(=O)Oc3ccccc3)c(OCC)c2)o1)[C@@H](CC)N(O)C=O	–	–	Metabolite_Detected
CCCCC[C@@H](C(=O)NCNC(=O)c1ccc(-c2ccc(C(=O)N[C@@H](CC(=O)O)C(=O)O)c(OCC)c2)o1)[C@@H](CC)N(C=O)OC(=O)C(CC)CC	–	< 3.98	Metabolite_Detected
